Assay results reported in PubChem BioAssay (NCI).
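These data come from cells grown in 96-well plates and exposed to compound for 48 hours at five concentrations. Abbreviation: GI50, concentration required for 50% inhibition of growth. TGI is the concentration that stops growth completely.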

What was measured:
Assay in all cases: NCI-60 cell line screen, 48 h
786-0 renal = system: 786-0 renal
A498 renal = system: A498 renal
A549 NSCLC = system: A549 NSCLC
ACHN renal = system: ACHN renal
BT-549 breast = system: BT-549 breast
CAKI-1 renal = system: CAKI-1 renal
CCRF-CEM leukemia = system: CCRF-CEM leukemia
COLO 205 colon = system: COLO 205 colon
DU-145 prostate = system: DU-145 prostate
EKVX NSCLC = system: EKVX NSCLC
HCC-2998 colon = system: HCC-2998 colon
HCT-116 colon = system: HCT-116 colon
HCT-15 colon = system: HCT-15 colon
HL-60(TB) leukemia = system: HL-60(TB) leukemia
HOP-62 NSCLC = system: HOP-62 NSCLC
HOP-92 NSCLC = system: HOP-92 NSCLC
HS 578T breast = system: HS 578T breast
HT29 colon = system: HT29 colon
IGROV1 ovarian = system: IGROV1 ovarian
K-562 leukemia = system: K-562 leukemia
KM12 colon = system: KM12 colon
LOX IMVI melanoma = system: LOX IMVI melanoma
M14 melanoma = system: M14 melanoma
MALME-3M melanoma = system: MALME-3M melanoma
MCF7 breast = system: MCF7 breast
MDA-MB-231 breast = system: MDA-MB-231 breast
MDA-MB-435 = system: MDA-MB-435
MOLT-4 leukemia = system: MOLT-4 leukemia
NCI-H226 lung = system: NCI-H226 lung
NCI-H23 lung = system: NCI-H23 lung
NCI-H460 lung = system: NCI-H460 lung
NCI-H522 lung = system: NCI-H522 lung
NCI/ADR-RES ovarian = system: NCI/ADR-RES ovarian
OVCAR-3 ovarian = system: OVCAR-3 ovarian
OVCAR-4 ovarian = system: OVCAR-4 ovarian
OVCAR-5 ovarian = system: OVCAR-5 ovarian
OVCAR-8 ovarian = system: OVCAR-8 ovarian
PC-3 prostate = system: PC-3 prostate
RPMI-8226 leukemia = system: RPMI-8226 leukemia
RXF 393 renal = system: RXF 393 renal
SF-268 CNS = system: SF-268 CNS
SF-295 CNS = system: SF-295 CNS
SF-539 CNS = system: SF-539 CNS
SK-MEL-2 melanoma = system: SK-MEL-2 melanoma
SK-MEL-28 melanoma = system: SK-MEL-28 melanoma
SK-MEL-5 melanoma = system: SK-MEL-5 melanoma
SK-OV-3 ovarian = system: SK-OV-3 ovarian
SN12C renal = system: SN12C renal
SNB-19 CNS = system: SNB-19 CNS
SNB-75 CNS = system: SNB-75 CNS
SR leukemia = system: SR leukemia
SW-620 colon = system: SW-620 colon
T-47D breast = system: T-47D breast
TK-10 renal = system: TK-10 renal
U251 CNS = system: U251 CNS
UACC-257 melanoma = system: UACC-257 melanoma
UO-31 renal = system: UO-31 renal

Question: `Cc1cc(-c2nnc(N)nc2-c2ccc(F)cc2)cc(Cl)n1` was tested. Which GI50 (786-0 renal) did it give?
Answer: > 100 µM

Question: And the TGI (786-0 renal)?
Answer: > 100 µM

Question: What about the GI50 (A498 renal) of the same molecule?
Answer: 49 µM

Question: And the TGI (A498 renal)?
Answer: > 100 µM

Question: And the GI50 (A549 NSCLC)?
Answer: > 100 µM

Question: And the TGI (A549 NSCLC)?
Answer: > 100 µM

Question: And the GI50 (ACHN renal)?
Answer: 73.3 µM

Question: And the TGI (ACHN renal)?
Answer: > 100 µM

Question: What about the GI50 (BT-549 breast) of the same molecule?
Answer: 58.1 µM

Question: And the TGI (BT-549 breast)?
Answer: > 100 µM

Question: What about the GI50 (CAKI-1 renal) of the same molecule?
Answer: 43.8 µM

Question: What about the TGI (CAKI-1 renal) of the same molecule?
Answer: > 100 µM

Question: What about the GI50 (CCRF-CEM leukemia) of the same molecule?
Answer: 93.1 µM

Question: What about the TGI (CCRF-CEM leukemia) of the same molecule?
Answer: > 100 µM

Question: What about the GI50 (COLO 205 colon) of the same molecule?
Answer: > 100 µM

Question: What about the TGI (COLO 205 colon) of the same molecule?
Answer: > 100 µM

Question: What about the GI50 (DU-145 prostate) of the same molecule?
Answer: > 100 µM

Question: And the TGI (DU-145 prostate)?
Answer: > 100 µM

Question: And the GI50 (EKVX NSCLC)?
Answer: 59.9 µM

Question: What about the TGI (EKVX NSCLC) of the same molecule?
Answer: > 100 µM

Question: What about the GI50 (HCC-2998 colon) of the same molecule?
Answer: > 100 µM

Question: What about the TGI (HCC-2998 colon) of the same molecule?
Answer: > 100 µM

Question: What about the GI50 (HCT-116 colon) of the same molecule?
Answer: 75.4 µM

Question: And the TGI (HCT-116 colon)?
Answer: > 100 µM

Question: And the GI50 (HCT-15 colon)?
Answer: > 100 µM

Question: And the TGI (HCT-15 colon)?
Answer: > 100 µM

Question: And the GI50 (HL-60(TB) leukemia)?
Answer: 33.6 µM

Question: And the TGI (HL-60(TB) leukemia)?
Answer: > 100 µM

Question: What about the GI50 (HOP-62 NSCLC) of the same molecule?
Answer: > 100 µM

Question: What about the TGI (HOP-62 NSCLC) of the same molecule?
Answer: > 100 µM

Question: And the GI50 (HOP-92 NSCLC)?
Answer: 11.5 µM

Question: What about the TGI (HOP-92 NSCLC) of the same molecule?
Answer: > 100 µM

Question: And the GI50 (HS 578T breast)?
Answer: > 100 µM

Question: And the TGI (HS 578T breast)?
Answer: > 100 µM

Question: And the GI50 (HT29 colon)?
Answer: > 100 µM

Question: What about the TGI (HT29 colon) of the same molecule?
Answer: > 100 µM

Question: What about the GI50 (IGROV1 ovarian) of the same molecule?
Answer: > 100 µM

Question: And the TGI (IGROV1 ovarian)?
Answer: > 100 µM

Question: And the GI50 (K-562 leukemia)?
Answer: 59 µM

Question: And the TGI (K-562 leukemia)?
Answer: > 100 µM

Question: What about the GI50 (KM12 colon) of the same molecule?
Answer: > 100 µM

Question: And the TGI (KM12 colon)?
Answer: > 100 µM

Question: And the GI50 (LOX IMVI melanoma)?
Answer: > 100 µM

Question: And the TGI (LOX IMVI melanoma)?
Answer: > 100 µM

Question: What about the GI50 (M14 melanoma) of the same molecule?
Answer: > 100 µM

Question: And the TGI (M14 melanoma)?
Answer: > 100 µM

Question: What about the GI50 (MALME-3M melanoma) of the same molecule?
Answer: > 100 µM

Question: And the TGI (MALME-3M melanoma)?
Answer: > 100 µM

Question: What about the GI50 (MCF7 breast) of the same molecule?
Answer: > 100 µM

Question: What about the TGI (MCF7 breast) of the same molecule?
Answer: > 100 µM

Question: What about the GI50 (MDA-MB-231 breast) of the same molecule?
Answer: 70.2 µM

Question: What about the TGI (MDA-MB-231 breast) of the same molecule?
Answer: > 100 µM

Question: And the GI50 (MDA-MB-435)?
Answer: > 100 µM

Question: What about the TGI (MDA-MB-435) of the same molecule?
Answer: > 100 µM

Question: And the GI50 (MOLT-4 leukemia)?
Answer: 49.9 µM

Question: And the TGI (MOLT-4 leukemia)?
Answer: > 100 µM

Question: And the GI50 (NCI-H226 lung)?
Answer: 46.9 µM

Question: What about the TGI (NCI-H226 lung) of the same molecule?
Answer: > 100 µM

Question: What about the GI50 (NCI-H23 lung) of the same molecule?
Answer: 54.3 µM

Question: And the TGI (NCI-H23 lung)?
Answer: > 100 µM

Question: And the GI50 (NCI-H460 lung)?
Answer: > 100 µM

Question: What about the TGI (NCI-H460 lung) of the same molecule?
Answer: > 100 µM

Question: And the GI50 (NCI-H522 lung)?
Answer: 55.9 µM

Question: What about the TGI (NCI-H522 lung) of the same molecule?
Answer: > 100 µM

Question: What about the GI50 (NCI/ADR-RES ovarian) of the same molecule?
Answer: 57.4 µM

Question: And the TGI (NCI/ADR-RES ovarian)?
Answer: > 100 µM

Question: What about the GI50 (OVCAR-3 ovarian) of the same molecule?
Answer: > 100 µM

Question: And the TGI (OVCAR-3 ovarian)?
Answer: > 100 µM

Question: What about the GI50 (OVCAR-4 ovarian) of the same molecule?
Answer: 97.3 µM

Question: What about the TGI (OVCAR-4 ovarian) of the same molecule?
Answer: > 100 µM

Question: And the GI50 (OVCAR-5 ovarian)?
Answer: > 100 µM

Question: What about the TGI (OVCAR-5 ovarian) of the same molecule?
Answer: > 100 µM

Question: What about the GI50 (OVCAR-8 ovarian) of the same molecule?
Answer: > 100 µM

Question: What about the TGI (OVCAR-8 ovarian) of the same molecule?
Answer: > 100 µM

Question: What about the GI50 (PC-3 prostate) of the same molecule?
Answer: 76.9 µM

Question: And the TGI (PC-3 prostate)?
Answer: > 100 µM

Question: What about the GI50 (RPMI-8226 leukemia) of the same molecule?
Answer: 37.3 µM

Question: What about the TGI (RPMI-8226 leukemia) of the same molecule?
Answer: > 100 µM

Question: What about the GI50 (RXF 393 renal) of the same molecule?
Answer: 87.2 µM

Question: What about the TGI (RXF 393 renal) of the same molecule?
Answer: > 100 µM

Question: What about the GI50 (SF-268 CNS) of the same molecule?
Answer: > 100 µM

Question: And the TGI (SF-268 CNS)?
Answer: > 100 µM

Question: What about the GI50 (SF-295 CNS) of the same molecule?
Answer: 72.7 µM

Question: What about the TGI (SF-295 CNS) of the same molecule?
Answer: > 100 µM

Question: What about the GI50 (SF-539 CNS) of the same molecule?
Answer: > 100 µM

Question: What about the TGI (SF-539 CNS) of the same molecule?
Answer: > 100 µM

Question: And the GI50 (SK-MEL-2 melanoma)?
Answer: > 100 µM

Question: And the TGI (SK-MEL-2 melanoma)?
Answer: > 100 µM

Question: What about the GI50 (SK-MEL-28 melanoma) of the same molecule?
Answer: > 100 µM

Question: And the TGI (SK-MEL-28 melanoma)?
Answer: > 100 µM

Question: What about the GI50 (SK-MEL-5 melanoma) of the same molecule?
Answer: 25.5 µM

Question: What about the TGI (SK-MEL-5 melanoma) of the same molecule?
Answer: > 100 µM

Question: And the GI50 (SK-OV-3 ovarian)?
Answer: > 100 µM

Question: What about the TGI (SK-OV-3 ovarian) of the same molecule?
Answer: > 100 µM

Question: And the GI50 (SN12C renal)?
Answer: > 100 µM

Question: What about the TGI (SN12C renal) of the same molecule?
Answer: > 100 µM

Question: What about the GI50 (SNB-19 CNS) of the same molecule?
Answer: > 100 µM

Question: What about the TGI (SNB-19 CNS) of the same molecule?
Answer: > 100 µM

Question: And the GI50 (SNB-75 CNS)?
Answer: 54.3 µM

Question: What about the TGI (SNB-75 CNS) of the same molecule?
Answer: > 100 µM

Question: What about the GI50 (SR leukemia) of the same molecule?
Answer: 64 µM

Question: What about the TGI (SR leukemia) of the same molecule?
Answer: > 100 µM

Question: What about the GI50 (SW-620 colon) of the same molecule?
Answer: > 100 µM

Question: What about the TGI (SW-620 colon) of the same molecule?
Answer: > 100 µM

Question: What about the GI50 (T-47D breast) of the same molecule?
Answer: 28.3 µM

Question: What about the TGI (T-47D breast) of the same molecule?
Answer: > 100 µM

Question: What about the GI50 (TK-10 renal) of the same molecule?
Answer: 42.6 µM

Question: What about the TGI (TK-10 renal) of the same molecule?
Answer: > 100 µM

Question: And the GI50 (U251 CNS)?
Answer: > 100 µM

Question: What about the TGI (U251 CNS) of the same molecule?
Answer: > 100 µM

Question: What about the GI50 (UACC-257 melanoma) of the same molecule?
Answer: 78.9 µM

Question: What about the TGI (UACC-257 melanoma) of the same molecule?
Answer: > 100 µM

Question: And the GI50 (UO-31 renal)?
Answer: 24.3 µM

Question: What about the TGI (UO-31 renal) of the same molecule?
Answer: > 100 µM
